Reference: PubChem BioAssay (NCI)
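Cells were grown in 96-well plates and exposed to each compound for 48 hours at five concentrations; endpoints were interpolated linearly between bracketing concentrations, or set to the highest concentration if not reached. At the TGI there is no net growth.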

Experiments:
Assay in all cases: DTP human tumour cell line panel, 48 h
A549 NSCLC = system: A549 NSCLC
CCRF-CEM leukemia = system: CCRF-CEM leukemia
MCF7 breast = system: MCF7 breast
MDA-N = system: MDA-N
NCI-H226 lung = system: NCI-H226 lung
NCI-H522 lung = system: NCI-H522 lung
OVCAR-3 ovarian = system: OVCAR-3 ovarian
OVCAR-4 ovarian = system: OVCAR-4 ovarian
RXF 393 renal = system: RXF 393 renal
SF-268 CNS = system: SF-268 CNS
SK-MEL-2 melanoma = system: SK-MEL-2 melanoma
T-47D breast = system: T-47D breast
TK-10 renal = system: TK-10 renal

| SMILES | TGI (A549 NSCLC) [µM] | TGI (CCRF-CEM leukemia) [µM] | TGI (MCF7 breast) [µM] | TGI (MDA-N) [µM] | TGI (NCI-H226 lung) [µM] | TGI (NCI-H522 lung) [µM] | TGI (OVCAR-3 ovarian) [µM] | TGI (OVCAR-4 ovarian) [µM] | TGI (RXF 393 renal) [µM] | TGI (SF-268 CNS) [µM] | TGI (SK-MEL-2 melanoma) [µM] | TGI (T-47D breast) [µM] | TGI (TK-10 renal) [µM] |
| --- | --- | --- | --- | --- | --- | --- | --- | --- | --- | --- | --- | --- | --- |
| O=C(Nc1cccc(C(=O)NCCCO)c1)/C(=C/c1ccccc1)NC(=O)c1ccccc1 | > 100 | > 100 | > 100 | > 100 | > 100 | > 100 | > 100 | > 100 | > 100 | > 100 | > 100 | > 100 | > 100 |
| COc1cc(CNc2c3ccccc3nc3ccccc23)cc(OC)c1OC | 12.7 | > 23.2 | > 32.9 | 13 | 10.3 | 11.6 | 30.2 | 20.3 | 9.04 | 16.5 | 5.66 | 41.9 | 37.5 |
| CCC1CCC2c3c([nH]c4ccc(C)cc34)C3C(=O)N(N(C)C)C(=O)C3C2C1 (stereo not given) | > 100 | > 100 | > 100 | 4.52 | > 100 | 2.68 | 2.98 | > 100 | 57.7 | > 59.8 | > 100 | 41.2 | > 100 |
| COC(=O)/N=[N+](\[O-])C(c1ccccc1)c1ccccc1 | > 100 | > 100 | > 100 | > 100 | > 100 | > 100 | > 100 | > 100 | > 100 | > 100 | > 100 | > 100 | > 100 |
| O=c1[nH]nc(Cc2ccccc2)n1/N=C/c1ccc([N+](=O)[O-])cc1 | > 100 | > 100 | > 100 | > 100 | > 100 | > 100 | > 100 | > 100 | > 100 | > 100 | > 100 | > 100 | > 100 |
| O=C1/C(=C/c2ccc(O)c(O)c2)CC/C1=C\c1ccc(O)c(O)c1 | > 79.9 | 9.81 | 22.3 | > 100 | 25.8 | 5.42 | 32 | > 57.5 | 19.3 | 26.7 | > 72.7 | 63.3 | > 100 |
| CN1CCN(Cc2nc3c(s2)CCc2sccc2-3)CC1 | > 100 | > 100 | > 100 | > 100 | > 100 | > 100 | > 100 | > 100 | > 100 | > 100 | > 100 | > 100 | > 100 |
| COc1cc(C2OC[C@@H]3C(=O)OC[C@H]23)cc(O)c1OC (stereo not given in full) | > 100 | > 100 | > 100 | > 100 | > 100 | > 100 | > 100 | > 100 | > 100 | > 100 | > 100 | > 100 | > 100 |
| C(#CC1(Nc2ccccc2)CCN(Cc2ccccc2)CC1)C1(Nc2ccccc2)CCN(Cc2ccccc2)CC1 | > 56.2 | 37.3 | > 56.2 | > 56.2 | > 56.2 | > 56.2 | > 97.1 | 53.7 | 25.7 | 47.8 | 20.1 | > 100 | 39.4 |
| CCCCCCCCCCOCCOCCOCCOCCCCC(O)CCCCCCCC1=C[C@H](C)OC1=O (stereo not given in full) | 29.9 | 51.1 | 20 | 24.3 | 23.4 | 21.1 | 33.8 | 37.7 | 23.5 | 22.9 | 25 | 75 | 21.4 |
| Cc1cn(C2CCN(CC3COC(C)(C)O3)O2)c(=O)[nH]c1=O (stereo not given) | > 100 | > 100 | > 100 | > 100 | > 100 | > 100 | > 100 | > 100 | > 100 | > 100 | > 100 | > 100 | > 100 |
| CCNc1nnc(-c2ccccc2Nc2ccccc2-c2nnc(NCC)s2)s1 | > 62 | 31.4 | 29.7 | 35 | 77.2 | 26.9 | > 100 | > 100 | 85.8 | 68.6 | 31 | > 84.8 | > 57.6 |
| OCC1CCCC1O (stereo not given) | > 100 | > 100 | > 100 | > 100 | > 100 | > 100 | > 100 | > 100 | > 100 | > 100 | > 100 | > 100 | > 100 |
| C=CC1(c2ccc3ccccc3c2)OCC(CC)O1 (stereo not given) | > 100 | 73.7 | > 100 | > 100 | 81.4 | > 100 | > 100 | > 100 | > 100 | > 100 | 43.9 | > 100 | > 100 |
| CN(C)c1ccc(/C=C(\NC(=O)c2ccccc2)C(=O)Nc2cccc(C(=O)NCCCO)c2)cc1 | > 100 | > 100 | > 100 | > 100 | > 100 | > 100 | > 100 | > 100 | > 100 | > 100 | > 100 | > 100 | > 100 |
| CC(=O)NC1COC(COC(=O)CCCCCCCCCCNC(=O)c2ccc([N+](=O)[O-])c3c(=O)c4ccccc4[nH]c23)C(O)C1OC(C)C(=O)NC(C(=O)NC(CCC(N)=O)C(=O)OCc1ccccc1)C(C)C (stereo not given) | 71.9 | 62.7 | 14.8 | 75 | 85.5 | 35.4 | 9.57 | 30.3 | 23.2 | 32.8 | 28.7 | 13 | 54.4 |
| CC(=O)n1[nH]c(=O)n(-c2ccccc2)c1=O | > 100 | > 100 | > 100 | > 100 | > 100 | > 100 | > 100 | > 100 | > 100 | > 100 | > 100 | > 100 | > 100 |
| O=[N+]([O-])C(/C=C(\Cl)[N+](=O)[O-])=C(N1CCCCC1)N1CCCCC1 | 54 | 59 | 18.9 | 41 | > 100 | > 100 | 54.7 | > 100 | > 100 | > 100 | > 100 | > 100 | > 100 |
| CC1=CC(=O)N(n2c(Cc3ccc(Cl)cc3)n[nH]c2=O)C1=O | > 100 | 29.3 | > 100 | > 100 | > 100 | 35.7 | > 100 | > 100 | 53.1 | > 100 | > 100 | > 100 | > 100 |
| Cc1cccc(C)c1N=Nc1ccc(O)c(CN(C)C)c1 | > 100 | > 100 | > 100 | > 100 | > 100 | > 100 | > 100 | > 100 | 46 | > 100 | 88.8 | 79.3 | > 100 |
